For this experiment, the system named is ventilator-associated pneumonia caused by carbapenem-resistant Acinetobacter baumannii. The experiment in a line: Clinical and microbiological outcomes of CMS nebulization. Format: in vivo. The conditions noted are these: of 20 patients. The procedure: Patients were treated with CMS (Xellia Pharmaceuticals ApS, Copenhagen, Denmark) at a total of 3.75 MIU (equivalent to 300 mg of CMS or 112.5 mg of CBA) administered four times a day at 6 h intervals. CMS was dissolved in 5 mL of normal saline and administered over 30 min through a jet nebulizer (Sileo 54, Macjin Medical, Seoul, Republic of Korea) connected to the ventilator circuit. Bronchoalveolar lavage fluid (BALF) was obtained by instilling 20 mL of normal saline into the right middle lobe or left lingular segmental bronchus using a bronchoscope, followed by immediate aspiration and collection into a syringe. Samples were collected immediately before the nebulization treatment and at 1, 3, and 5 h after the start of the treatment. Blood samples were collected before the nebulization treatment and at 1, 2, 3, and 5 h thereafter. Both BALF and blood samples were centrifuged at 3000× g for 10 min within 1 h of collection and the supernatant was isolated. Samples were then stored in a refrigerator at a temperature below −70 °C.
Clinical outcomes were classified as cured (resolution of symptoms/signs of pneumonia plus improvement or lack of progression in radiologic pulmonary infiltrates, and antibiotics-free), improved (significant improvement of symptoms/signs of pneumonia plus improvement or lack of progression in radiologic abnormalities, but remaining on antibiotic treatment), and failed (persistent or worsening of symptoms/signs of pneumonia, persistent or progression of radiologic pulmonary infiltrates that required additional antibiotic therapy, or death).

Experimental findings from article PMC10967270, “Intrapulmonary and Systemic Pharmacokinetics of Colistin Following Nebulization of Low-Dose Colistimethate Sodium in Patients with Ventilator-Associated Pneumonia Caused by Carbapenem-Resistant Acinetobacter baumannii” (Antibiotics, 2024) are described below.

With Colistimethate sodium [CMS], under “nebulized CMS 3.75 MIU/day”, the “Clinical outcomes: failed, number of patients” value was found to be 4; the “Microbiologic outcomes: eradication, number of patients” value amounted to 8; the “Microbiologic outcomes: indeterminate, number of patients” value turned out to be 2; the “Microbiologic outcomes: persistence, number of patients” value was 10. For the setting “nebulized CMS 3.75 MIU/day”, the “Survival: no, number of patients” value is 15 and the “Survival: yes, number of patients” value came to 5. For the same substance, the “Clinical outcomes: cured, number of patients” value (nebulized CMS 3.75 MIU/day in four doses at 6 h intervals) was 16.
